Test results: paper PMC8880268, “Magnolol and Luteolin Inhibition of α-Glucosidase Activity: Kinetics and Type of Interaction Detected by In Vitro and In Silico Studies” (Pharmaceuticals, 2022)
Several values for one entry are separate records, joined by “and”; a condition that tells them apart may be missing. Equal entries are not always repeated. Entries after “also recorded” stand apart in the source; their conditions may differ. Where two headings read alike, the source gives them in different places.

How the values were obtained:
α-glucosidase [1] = molecular target: T1, α-glucosidase (Saccharomyces cerevisiae, UniProt P38158); test: Yeast α-glucosidase inhibitory assay (pNPG substrate, absorbance 405 nm); format: biochemical; settings: for IC50: 2 mM pNPG
T1 construct: purchased Merck KGaA, Darmstadt, Germany
Description: α-Glucosidase inhibitory activity was determined according to a previous method. Briefly, 0.1 mM PBS (pH 6.8) was used to dissolve α-glucosidase and pNPG. In detail, 80 μL of PBS or 80 μL of test sample were added to 96-well plates. Successively, 20 μL of enzyme (0.025–0.125 µM) were added to each well. Magnolol (10–100 μM) and luteolin (5–50 μM) were prepared in DMSO (<1% v/v). […] Each sample was incubated with α-glucosidase for 10 min at 37 °C. The reaction started by adding 200 μL of pNPG (2 mM). The absorbance values were detected at 405 nm for 60 min, using a PerkinElmer Victor Nivo microplate spectrophotometer (Waltham, MA, USA). The α-glucosidase activity in the absence of inhibitors was defined as 100%. The half-maximal inhibitory concentration (IC50) was estimated by plot of relative enzymatic activity vs. inhibitor concentration.

α-glucosidase [2] = molecular target: T1, α-glucosidase; set-up: method as in PMID 24333230; settings: ref 17; cited from earlier work
α-glucosidase [3] = settings: cited from earlier work
α-glucosidase [4] = molecular target: T1, α-glucosidase; test: Kinetic analysis of yeast α-glucosidase inhibition (Michaelis–Menten and Lineweaver–Burk plots); format: biochemical; settings: for Inhibitor Potency (relative to acarbose): from Ki values; for Vmax of α-glucosidase: converted using the Lambert–Beer relationship
Description: The type of enzyme inhibition exerted by inhibitors was evaluated from kinetic studies using different substrate concentrations (0.25–2.5 mM pNPG) applying Michaelis–Menten and Lineweaver–Burk plots. Inhibition constants (Ki) were determined by plots of the Y-intercept of the Lineweaver–Burk plot vs. inhibitor concentration.

α-glucosidase [5] = molecular target: T1, α-glucosidase; test: Synchronous fluorescence spectra; settings: pH 6.8, 298 K
Text: The application of this method allows the identification of conformational changes in proteins according to the spectroscopic behavior of the tyrosine and tryptophan residues. Synchronous fluorescence spectra were collected in the emission range of 260–320 nm. The difference between excitation and emission wavelength (Δλ) was established at 15 nm (tyrosine residues) or at 60 nm (tryptophan residues).

α-glucosidase [6] = molecular target: T1, α-glucosidase; test: Fluorescence quenching analysis and thermodynamic parameters; format: binding; settings: for Ksv (Stern–Volmer quenching constant): pH 6.8, α-glucosidase 0.35 µM; for Kd: read-out: Ka (binding constant) (converted)
Description: The interaction of inhibitors with α-glucosidase was studied using the fluorescence quenching method. […] Measurements were made in the emission range of 300–450 nm, with an excitation of 280 nm, after 10 min of stabilization. The fluorescent spectra of α-glucosidase (0.35 µM) and each inhibitor (0–1.0 µM) were carried out at three different temperatures (298, 304, and 310 K) and the bandwidths were set at 5 nm for both emission and excitation slits. For each sample, three fluorescence spectra were acquired, and the blank was subtracted. The compound quenching mechanism was assessed using the Stern–Volmer equation: F0 / F = 1 + Ksv[Q] = 1 + Kq^.τo[Q], where F0 and F are the fluorescence measure in absence and in presence of different concentrations of quencher, respectively; Ksv is the Stern–Volmer quenching constant; Kq is the coefficient of quencher rate coefficient; τ0 is the life time of the excited state; and [Q] is the concentration of the quencher.
Further elaboration of the equilibrium within the free and bound molecules can be achieved through the analysis of the fluorescence emission data utilizing the following equation: log (F0 − F) / F = log Ka + n log [Q], which obtains the binding constant (Ka) and the number of binding sites per protein (n) for the enzyme-inhibitor system.
Thermodynamic spontaneity is an important factor in the study of protein-ligand interaction. A system tends not only toward a lower energy state (enthalpy, ΔH), but also according to a state of disorder (entropy, ΔS). Thermodynamic parameters were obtained according to the Van ’t Hoff equation and the plot of “log Ka vs. 1/T”. The trade-off between enthalpy (ΔH°) and entropy (ΔS°) is used to obtain the standard free energy variation (ΔG°).

α-glucosidase [7] = molecular target: T1, α-glucosidase; test: Inactivation kinetics, time course of α-glucosidase activity; format: biochemical; settings: enzyme 0.075 µM, pNPG 2 mM
Description: The enzyme and substrate concentrations were 0.075 µM and 2 mM, respectively.

[8] = 298–310 K, Van ’t Hoff equation

T1 sequence (P38158 whole entry): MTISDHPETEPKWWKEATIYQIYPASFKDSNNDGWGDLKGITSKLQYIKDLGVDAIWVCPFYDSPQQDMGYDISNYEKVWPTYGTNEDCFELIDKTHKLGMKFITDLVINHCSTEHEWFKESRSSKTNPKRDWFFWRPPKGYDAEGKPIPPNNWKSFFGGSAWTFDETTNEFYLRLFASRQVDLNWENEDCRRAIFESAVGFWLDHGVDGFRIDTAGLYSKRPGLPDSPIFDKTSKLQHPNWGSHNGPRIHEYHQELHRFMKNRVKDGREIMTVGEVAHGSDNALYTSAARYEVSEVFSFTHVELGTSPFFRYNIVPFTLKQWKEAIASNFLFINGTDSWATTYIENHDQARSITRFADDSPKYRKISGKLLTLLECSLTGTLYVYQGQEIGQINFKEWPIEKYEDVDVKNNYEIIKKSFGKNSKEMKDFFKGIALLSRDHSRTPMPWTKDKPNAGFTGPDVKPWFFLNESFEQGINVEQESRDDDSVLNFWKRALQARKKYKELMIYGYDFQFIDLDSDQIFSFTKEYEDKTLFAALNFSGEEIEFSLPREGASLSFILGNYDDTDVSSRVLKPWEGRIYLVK

## O=c1cc(-c2ccc(O)c(O)c2)oc2cc(O)cc(O)c12 [Luteolin, 3’,4’,5,7-tetrahydroxyflavone]
α-glucosidase [1]; plots v vs. [α-glucosidase] at different inhibitor concentrations
  reversibility of inhibition: reversible inhibition
α-glucosidase [1]; α-glucosidase 0.025 × 10^−6 M, read-out: IC50
  IC50: 14 ± 10.5 µM
α-glucosidase [1]; α-glucosidase 0.05 × 10^−6 M, read-out: IC50
  IC50: 21.6 ± 11.7 µM
α-glucosidase [1]; α-glucosidase 0.05 × 10^−6 M, read-out: −Log IC50 (converted)
  IC50: 21.9 µM
α-glucosidase [1]; α-glucosidase 0.075 × 10^−6 M, read-out: IC50
  IC50: 32.3 ± 11.7 µM
α-glucosidase [1]; α-glucosidase 0.125 × 10^−6 M, read-out: IC50
  IC50: 59.4 ± 12.3 µM
α-glucosidase [2]
  distance between inhibitor and α-glucosidase: 4.56 nm
α-glucosidase [3]; first of 'respectively', from literature IC50 values ref 18
  times more potent than acarbose: 13 times
α-glucosidase [3]; ref 4
  Ki: 29 µM and 38 µM
α-glucosidase [3]; ref 6
  IC50: 46 µM
α-glucosidase [3]; ref 17
  Ki: 140 µM
α-glucosidase [3]; ref 18
  IC50: 13.1 µM
α-glucosidase [3]; second of 'respectively', from literature IC50 values ref 6
  times more potent than acarbose: 17 times
α-glucosidase [4]; 0.075 µM α-glucosidase
  Ki’ (binding constant of the inhibitor to the substrate-enzyme complex): 35.4 µM
α-glucosidase [4]; 0.075 µM α-glucosidase, secondary plots of slope versus [I], read-out: Ki (binding constant of the inhibitor to the free enzyme)
  Ki: 34.2 µM
α-glucosidase [4]; Michaelis–Menten and Lineweaver–Burk plots
  type of inhibition: non-competitive inhibition; also recorded: non-competitive reversible inhibitor
α-glucosidase [4]
  Inhibitor Potency (relative to acarbose): 10.4
α-glucosidase [4]; listed as luteolin
  Inhibitor Potency (relative to acarbose): ≥ 10
α-glucosidase [4]; inhibitor 5 µM, 0.075 µM α-glucosidase
  Kcat of α-glucosidase: 2.95 ± 0.12 s⁻¹
α-glucosidase [4]; inhibitor 10 µM, 0.075 µM α-glucosidase
  Kcat of α-glucosidase: 2.65 ± 0.13 s⁻¹
α-glucosidase [4]; inhibitor 25 µM, 0.075 µM α-glucosidase
  Kcat of α-glucosidase: 2.02 ± 0.12 s⁻¹
α-glucosidase [4]; inhibitor 25 µM
  Vmax of α-glucosidase: 9.10 ± 0.50 µM/min
α-glucosidase [4]; inhibitor 40 µM, 0.075 µM α-glucosidase
  Kcat of α-glucosidase: 1.78 ± 0.12 s⁻¹
α-glucosidase [4]; inhibitor 40 µM
  Vmax of α-glucosidase: 8.00 ± 0.50 µM/min
α-glucosidase [4]; inhibitor 50 µM, 0.075 µM α-glucosidase
  Kcat of α-glucosidase: 1.41 ± 0.11 s⁻¹
α-glucosidase [4]; inhibitor 50 µM
  Vmax of α-glucosidase: 6.34 ± 0.60 µM/min
α-glucosidase [5]; ∆λ = 15 nm (tyrosine residues)
  shift of synchronous fluorescence maximum: blue shift from 286 to 283
α-glucosidase [5]; ∆λ = 60 nm (tryptophan residues)
  shift of synchronous fluorescence maximum: no modification
α-glucosidase [6]; 298 K
  Kq (bimolecular quenching constant): 23.22 ± 0.159 10^13 M^−1 s^−1
  n (number of binding sites): 1.10
  Ksv (Stern–Volmer quenching constant): 23.22 ± 0.16 10^5 M^−1
  Kd: 0.402 µM
α-glucosidase [6]; 298 K, Van ’t Hoff equation
  ΔG° (free energy change): -0.547 kcal/mol
α-glucosidase [6]; [8]
  ΔH° (enthalpy change): -2.18 kcal/mol
  ∆S° (entropy change): −22.95 J mol^−1K^−1
α-glucosidase [6]; 304 K
  Kq (bimolecular quenching constant): 21.73 ± 0.141 10^13 M^−1 s^−1
  n (number of binding sites): 1.28
  Ksv (Stern–Volmer quenching constant): 21.73 ± 0.14 10^5 M^−1
  Kd: 0.417 µM
α-glucosidase [6]; 304 K, Van ’t Hoff equation
  ΔG° (free energy change): -0.514 kcal/mol
α-glucosidase [6]; 310 K
  Kq (bimolecular quenching constant): 18.68 ± 0.120 10^13 M^−1 s^−1
  n (number of binding sites): 1.34
  Ksv (Stern–Volmer quenching constant): 18.68 ± 0.12 10^5 M^−1
  Kd: 0.464 µM
α-glucosidase [6]; 310 K, Van ’t Hoff equation
  ΔG° (free energy change): -0.48 kcal/mol
α-glucosidase [6]; based on Ksv and Kq values
  fluorescence quenching mechanism: static quenching mechanism
α-glucosidase [6]; no temperature stated
  number of binding sites: approximately 1
α-glucosidase [7]; inhibitor 5 µM
  Inactivation rate constant K: 2.67 ± 0.08 10^−4 s^−1
α-glucosidase [7]; inhibitor 10 µM
  Inactivation rate constant K: 2.78 ± 0.08 10^−4 s^−1
α-glucosidase [7]; inhibitor 25 µM
  Inactivation rate constant K: 2.81 ± 0.03 10^−4 s^−1
α-glucosidase [7]; inhibitor 40 µM
  Inactivation rate constant K: 2.82 ± 0.04 10^−4 s^−1
α-glucosidase [7]; inhibitor 50 µM
  Inactivation rate constant K: 2.84 ± 0.01 10^−4 s^−1
